Results on 14 compounds are retold here after US6660872B1, “Method of producing methoxyimino acetic amide” (Bayer Aktiengesellschaft, priority 1999, dated 2003).

The series can be described thus: determination of the logP-Values by HPLC according to EEC-Direktive 79/831 Annex V. A8. The format is physicochemical. As to conditions: gradient method, acetonitrile/0,1% aqueous phosphoric acid; for chromatographic logP: HPLC (gradient, acetonitrile/0.1% aqueous phosphoric acid), read-out: log p. On the procedure:
The determination of the logP-Values was carried out for all examples according to the EEC-Direktive 79/831 Annex V. A8 by HPLC (gradient method, acetonitrile/0,1% aqueous phosphoric acid).

Values joined by “and” are separate entries in the source; they are usually repeats but may differ in a detail not shown here. Equal entries are not always repeated.

In turn, `CNC(=O)/C(=N/OC)c1ccccc1Oc1ncnc(Oc2ccccc2Cl)c1F` (single isomer, unassigned) [XI-2, E-isomer, N-methyl-E-2-[2-(5-fluoro-2′-chlorophenoxypyrimidin-4-yloxy)phenyl]-2-methoxyiminoacetamide] returned a log p of 3.01.
For the compound `CNC(=O)/C(=N\OC)c1ccccc1Oc1ncnc(Oc2ccccc2Cl)c1F` (single isomer, unassigned) [XI-2, Z-isomer, N-methyl-Z-2-[2-(5-fluoro-2′-chlorophenoxypyrimidin-4-yloxy)-phenyl]-2-methoxyiminoacetamide], the log p was 2.95 and 2.94.
With `O=C1Oc2ccccc2/C1=N\O` [E-benzofuran-2,3-dione 3-oxime], the chromatographic logP is 1.55.
The same measure, in the same setting: then `CNC(=O)/C(=N/OC)c1ccccc1O` [N-methyl-E-2-(2-hydroxyphenyl)-2-methoxyimino-acetamide], with 0.98; and `CNC(=O)/C(=N/OC)c1ccccc1Oc1ncnc(F)c1F` [N-methyl-E-2-[2-(5,6-difluoropyrimidin-4-yloxy)-phenyl]-2-methoxyiminoacetamide], with 1.95; and `CNC(=O)/C(=N\OC)c1ccccc1O` [N-methyl-Z-2-(2-hydroxyphenyl)-2-methoxyiminoacetamide], with 1.29.
On the same count and under the same terms, for `CNC(=O)/C(=N\OC)c1ccccc1Oc1ncnc(F)c1F` [N-methyl-Z-2-[2-(5,6-difluoro-pyrimidin-4-yloxy)phenyl]-2-methoxyiminoacetamide] the value was 1.87.
Turning to `CNC(=O)/C(=N/OC)c1ccccc1Oc1ncnc(Oc2cccc(Cl)c2C)c1F` [XI-1, E-isomer, N-methyl-E-2-[2-(5-fluoro-2′-methyl-3′-chlorophenoxypyrimidin-4-yloxy)phenyl]-2-methoxyiminoacetamide], the chromatographic logP was determined as 3.51 and the log p is on record as 3.50.
Regarding `CNC(=O)/C(=N\OC)c1ccccc1Oc1ncnc(Oc2cccc(Cl)c2C)c1F` [XI-1, Z-isomer, N-methyl-Z-2-[2-(5-fluoro-2′-methyl-3′-chlorophenoxy-pyrimidin-4-yloxy)phenyl]-2-methoxyiminoacetamide], the chromatographic logP was found to be 3.44 and the log p was determined as 3.43.
For `COC(=O)C(=O)c1ccccc1O` [methyl 2-hydroxyphenylglyoxylate], the chromatographic logP was determined as 1.87.
In the case of `COC(=O)/C(=N/O)c1ccccc1O` [methyl E-2-(2-hydroxyphenyl)-2-hydroxyimino-acetate], the chromatographic logP was found to be 0.95.
As to `CO/N=C(/C(=O)OC)c1ccccc1O` [methyl E-2-(2-hydroxyphenyl)-2-methoxyimino-acetate], the chromatographic logP came to 1.48.
`COC(=O)/C(=N\O)c1ccccc1O` [methyl Z-2-(2-hydroxyphenyl)-2-hydroxyimino-acetate]: the chromatographic logP amounted to 1.68 and the log p came to 1.70.
Consider `CO/N=C(\C(=O)OC)c1ccccc1O` [methyl Z-2-(2-hydroxyphenyl)-2-methoxyimino-acetate], for which the chromatographic logP amounted to 2.39; the log p is 2.38 and 2.37.
